# Assay results taken from ChEMBL document CHEMBL1125340, “Inhibition of hog liver folylpolyglutamate synthetase by 5-substituted 5,8-dideaza analogues of folic acid bearing a terminal L-ornithine residue” (J Med Chem, 1992).
# Test system: Folylpolyglutamate synthase (Sus scrofa)
# Assay: The ratio of Kinetic constant Vmax / Binding constant Km at homogenous Hog Liver Folyl polyglutamate Synthetase (FPGS).
row,Compound,Ratio
1,NCCCC(NC(=O)c1ccc(NCc2ccc3nc(N)nc(O)c3c2C(F)(F)F)cc1)C(=O)O (centres undefined),121
2,NCCCC(NC(=O)c1ccc(CNc2ccc3nc(N)nc(O)c3c2C(F)(F)F)cc1)C(=O)O (centres undefined),118
3,NCCCC(NC(=O)c1ccc(CNc2ccc3nc(N)nc(O)c3c2F)cc1)C(=O)O (centres undefined),64
4,NCCCC(NC(=O)c1ccc(CNc2ccc3nc(N)nc(O)c3c2Cl)cc1)C(=O)O (centres undefined),102
